# In patent US8889702B2, “Derivatives of azaspiranyl-alkylcarbamates of 5-member heterocyclic compounds, preparation thereof and therapeutic use thereof” (Sanofi, priority 2009, dated 2014):
# Columns and labels:
# [1] = target: T1, enzyme FAAH (Fatty Acid Amide Hydrolase) (Mus musculus, UniProt O08914); assay: radioenzymatic test: hydrolysis of anandamide [ethanolamine 1-3H] with FAAH, mouse brain membrane homogenates; type: biochemical; settings: mouse brain membrane homogenate; preincubation 20 minutes at 25° C.; anandamide 10 μM; read-out: IC50 (concentration that inhibits 50% of the control enzymatic activity of FAAH)
# T1 construct: The membrane homogenates are prepared extemporaneously by homogenizing the tissues; from tissue; host or cells: mouse brain (minus the cerebellum), membrane homogenate
# T1 sequence (O08914 1-579): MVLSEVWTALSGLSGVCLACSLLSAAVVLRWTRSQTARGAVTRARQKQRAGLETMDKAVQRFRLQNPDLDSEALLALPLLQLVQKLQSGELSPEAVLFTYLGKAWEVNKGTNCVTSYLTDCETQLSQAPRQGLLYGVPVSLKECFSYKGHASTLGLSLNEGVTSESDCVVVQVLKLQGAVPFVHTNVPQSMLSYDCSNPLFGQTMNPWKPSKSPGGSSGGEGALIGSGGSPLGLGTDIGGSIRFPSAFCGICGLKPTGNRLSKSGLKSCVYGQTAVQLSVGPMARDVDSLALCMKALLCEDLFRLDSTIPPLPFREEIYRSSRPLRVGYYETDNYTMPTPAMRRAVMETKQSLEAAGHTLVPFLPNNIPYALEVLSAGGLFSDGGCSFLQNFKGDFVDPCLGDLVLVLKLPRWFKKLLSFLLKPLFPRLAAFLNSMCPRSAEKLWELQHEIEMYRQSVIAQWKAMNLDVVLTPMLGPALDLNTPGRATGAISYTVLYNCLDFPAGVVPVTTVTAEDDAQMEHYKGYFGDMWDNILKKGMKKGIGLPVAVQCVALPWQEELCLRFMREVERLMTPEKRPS
# Description: The compounds of the invention underwent pharmacological tests to determine their inhibitory effect on the enzyme FAAH (Fatty Acid Amide Hydrolase).
# Thus, mouse brains (minus the cerebellum) are removed and stored at −80° C. The membrane homogenates are prepared extemporaneously by homogenizing the tissues using a Precellys® machine in reaction buffer (10 mM Tris-HCl, pH=8, 150 mM NaCl and 1 mM ethylenediaminetetraacetic acid (EDTA)). The enzymatic reaction is performed in 96-well Multiscreen filtration plates in a final volume of 70 μL. Reaction buffer supplemented with fatty acid-free bovine serum albumin (BSA, 1 mg/ml) is used for the enzymatic reaction and the dilution of the compounds and of the anandamide [ethanolamine 1-^3H]. The reaction buffer containing BSA (43 μL/well), the diluted test compounds at different concentrations (7 μL/well containing 1% DMSO) and the membrane preparation (10 μL/well, i.e. 200 μg of tissue per test) are successively added to the wells. After preincubation for 20 minutes of the compounds with the enzyme at 25° C., the reaction is started by adding anandamide [ethanolamine 1-^3H]. (Specific activity of 15-20 Ci/mmol) diluted with cold anandamide (10 μL/well, final concentration of 10 μM, 0.01 μCi per test). After incubation for 20 minutes at 25° C., the enzymatic reaction is stopped by adding a […] of active charcoal prepared in 1.5M NaCl buffer and 0.5 M HCl (50 μL/well). The mixture is stirred for 10 minutes and the aqueous phase containing the ethanolamine [1-^3H] is then recovered by filtration under vacuum and counted by liquid scintillation.
# [2] = tested on: male OF1 mice; assay: test of analgesia: abdominal stretching induced with PBQ (phenylbenzoquinone); type: in vivo, mouse; settings: 30 mg/kg p.o. at 120 minutes
# Description: The in vivo activity of the compounds of the invention was evaluated in a test of analgesia.
# Thus, the intraperitoneal (i.p.) administration of PBQ (phenylbenzoquinone, 2 mg/kg in 0.9% sodium chloride solution containing 5% ethanol) to male OF1 mice weighing 25 to 30 g causes abdominal stretching, on average 30 torsions or contractions within a period of 5 to 15 minutes after injection. The test compounds are administered orally (p.o.) or intraperitoneally (i.p.) suspended in Tween 80 at 0.5%, 60 minutes or 120 minutes before the administration of PBQ. Under these conditions, the compounds of the invention that are the most powerful reduce by 35% to 80% the number of stretches induced with PBQ, over a dose range of between 1 and 30 mg/kg.
# For example, compound 5 of Table 1 reduces by 50% the number of stretches induced with PBQ, at a dose of 30 mg/kg p.o. at 120 minutes.
Compound,IC50 [1] [nM],melting point [°C],reduction of the number of stretches induced with PBQ [2] [%]
"NC(=O)c1cc(COC(=O)NC2CC3(CCN(c4ccc(-c5ccc(F)cc5)cn4)C3)C2)on1 (mixture of isomers) [Compound 10, 3-Carbamoylisoxazol-5-ylmethyl{6-[5-(4-fluorophenyl)pyridin-2-yl]-6-azaspiro[3.4]oct-2-yl}carbamate]",2.3,,
"CNC(=O)c1cc(COC(=O)NCC2CC3(CCN(c4ccc(-c5ccc(F)cc5)cn4)C3)C2)on1 (single isomer, unassigned) [Compound 12, 3-(Methylcarbamoyl)isoxazol-5-ylmethyl 6-[5-(4-fluorophenyl)pyridin-2-yl]-6-azaspiro[3.4]oct-2-ylmethylcarbamate]",0.85,171 to 173,
"CNC(=O)c1cc(COC(=O)NCC2CC3(CCN(c4ccc(-c5ccc(F)cc5)cn4)C3)C2)on1 (single isomer, unassigned) [Compound 13, 3-(Methylcarbamoyl)isoxazol-5-ylmethyl 6-[5-(4-fluorophenyl)pyridin-2-yl]-6-azaspiro[3.4]oct-2-ylmethylcarbamate]",,180 to 182,
"CNC(=O)c1cc(COC(=O)NC2CC3(CCN(c4ccc(-c5ccc(F)cc5)cn4)C3)C2)on1 (single isomer, unassigned) [Compound 17, 3-(Methylcarbamoyl)isoxazol-5-ylmethyl{6-[5-(4-fluorophenyl)pyridin-2-yl]-6-azaspiro[3.4]oct-2-yl}carbamate]",,203 to 205,
"CNC(=O)c1cc(COC(=O)NC2CC3(CCN(c4ccc(-c5ccc(F)cc5)cn4)C3)C2)on1 (single isomer, unassigned) [Compound 18, 3-(Methylcarbamoyl)isoxazol-5-ylmethyl{6-[5-(4-fluorophenyl)pyridin-2-yl]-6-azaspiro[3.4]oct-2-yl}carbamate]",,194 to 196,
"NC(=O)c1cc(COC(=O)NC2CC3(CCN(c4ccc(Br)cn4)CC3)C2)on1 [Compound 4, 3-carbamoylisoxazol-5-ylmethyl[7-(5-bromopyridin-2-yl)-7-azaspiro[3.5]non-2-yl]carbamate]",8.2,,
"NC(=O)c1cc(COC(=O)NC2CC3(CCN(c4ccc(-c5ccc(F)cc5)cn4)CC3)C2)on1 [Compound 5, 3-Carbamoylisoxazol-5-ylmethyl{7-[5-(4-fluorophenyl)pyridin-2-yl]-7-azaspiro[3.5]non-2-yl}carbamate]",,216 to 218,50
"NC(=O)c1cc(COC(=O)NCC2CC3(CCN(c4ccc5cc(F)ccc5n4)CC3)C2)on1 [Compound 6, 3-Carbamoylisoxazol-5-ylmethyl[7-(6-fluoroquinolin-2-yl)-7-azaspiro[3.5]non-2-yl]methylcarbamate]",0.25,190 to 192,
"CNC(=O)c1cc(COC(=O)NC2CC3(CCN(c4ccc(-c5ccc(F)cc5)cn4)CC3)C2)on1 [Compound 8, 3-(Methylcarbamoyl)isoxazol-5-ylmethyl 7-[5-(4-fluorophenyl)pyridin-2-yl]-7-azaspiro[3.5]non-2-ylcarbamate]",0.72,219 to 221,
"CNC(=O)c1cc(COC(=O)NC2CC3(CCN(c4ccc5cc(Cl)ccc5n4)CC3)C2)on1 [Compound 19, 3-(Methylcarbamoyl)isoxazol-5-ylmethyl[7-(6-chloroquinolin-2-yl)-7-azaspiro[3.5]non-2-yl]carbamate]",1.8,,
"NC(=O)c1cc(COC(=O)NC2CC3(CCN(c4cncc(-c5ccc(F)cc5)n4)CC3)C2)on1 [Compound 25, 3-carbamoylisoxazol-5-ylmethyl{7-[6-(4-fluorophenyl)pyrazin-2-yl]-7-azaspiro[3.5]non-2-yl}carbamate]",1.7,,
"CC(C)Cc1ccc(N2CCC3(CC2)CC(NC(=O)OCc2cc(C(N)=O)no2)C3)nc1 [Compound 31, 3-Carbamoylisoxazol-5-ylmethyl[7-(5-isobutylpyridin-2-yl)-7-azaspiro[3,5]non-2-yl]carbamate]",4.3,178 to 180,
"NC(=O)c1cc(COC(=O)NC2CC23CCN(c2nccc(C(F)(F)F)n2)CC3)on1 (stereo not drawn) [Compound 40, 3-Carbamoylisoxazol-5-ylmethyl[6-(4-trifluoromethylpyrimidin-2-yl)-6-azaspiro[2.5]oct-1-yl]carbamate]",0.5,,
